From patent publication US20210386761A1, “COMPOSITION FOR PREVENTING OR TREATING INFLAMMATORY BOWEL DISEASE, CONTAINING, AS ACTIVE INGREDIENT, TAURODEOXYCHOLIC ACID OR PHARMACEUTICALLY ACCEPTABLE SALT THEREOF” (SHAPERON INC., priority 2019, published 2021)

What was measured:
[1] = system: lamina propria mononuclear cells (LPMC) in the colon tissue; assay: Inflammatory cell analysis (FACS of LPMC from colon tissue) in 2% DSS mouse model; format: in vivo; conditions: Day 7; for numbers of CD11b+, Ly6g+, Ly6c+, CD3+, CD4+, CD8+, CD19+, and MHCII+CD11c+ LPMCs in the colon tissue: FIG. 7A
Procedure: A colon tissue was obtained from a mouse which had been subjected to an experiment by the same method as that described in <Example 2> and put into 30 ml of EDTA and dissociated by being stirred at 37° C. for 30 minutes in order to remove mucus. Next, the tissue was drained with a strainer (70 μm) and washed with warm DPBS. The washing process was repeated a total of 4 to 5 times. An enzyme mixture was prepared by adding 2.35 ml of RPMI 1640 or DMEM, 100 μl of enzyme D, 50 μl of enzyme R, and 12.5 μl of enzyme A to a gentleMACS C tube (Miltenyi Biotec, 130-096-334, Bergisch Gladbach, Germany). The tissue was transferred to the gentleMACS C tube containing the enzyme mixture and dissociated using the gentleMACS Dissociator (Miltenyi Biotec, 130-093-235, Bergisch Gladbach, Germany). Next, the reaction was conducted at 37° C. for 40 minutes in a thermal incubator (Thermo scientific, BB-15, Waltham, Mass., USA) under continuous rotation using a MACSmix Tube Rotator. The digested cells were resuspended in 4 ml of 40% Percoll solution. […]
In order to confirm changes in the number of inflammatory cells, FACS analysis was performed. […] Next, the cells were washed two times with DPBS, resuspended in 200 μl DAPI, then analyzed using a flow cytometer (LSR Fortessa cytometer, Mississauga, Canada), and graphed.
(§1) Specifically, female C57BL/6 mice were fed with a 2% DSS solution together with drinking water for 7 days from Day 0 of the experiment by the same method as that described in <Example 1>, DPBS or 5 mg/kg TDCA was administered to the mice by oral gavage one time a day for 6 days from Day 1 of the experiment, and the body weight and DAI were measured daily. […]
as §1, with “gavage” for “gavage one time a day for 6 days”, “DSS administration or 2 days before DSS administration,” for “the experiment,”

[2] = system: inflammatory bowel disease induced by 3% DSS administration for 7 days; assay: 3% DSS 7-day inflammatory bowel disease model, comparison with clinical prescription drugs; format: in vivo, mouse; conditions: 3% DSS 7 days
Procedure: (§2) In order to evaluate the clinical symptoms-improving efficacy in comparison with those by clinical prescription drugs, inflammatory bowel disease was induced by 7-day or repeated administration of 3% or 2.5% DSS solution, and tofacitinib 10 mg/kg, 5-ASA 100 mg/kg or 200 mg/kg, prednisolone 1 mg/kg, and TDCA 2.5 mg/kg were administered one time a day from the start date of DSS administration. From the start date of DSS administration, TDCA 2.5 mg/kg was administered one time a day (QD), two times a day (BID), and three times a day (TID).
The disease activity indexes (DAI) including body weight, body weight loss, stool consistency, and bloody stool were measured daily. DAI was scored according to the following [Table 1].
After the experiment was completed, the mice were euthanized with CO2 and the bowels were excised. Next, the bowels were put in cold 1×DPBS and the remaining mesenteric adipose tissue was isolated. At this time, the colon length was measured. Next, the tail end of the colon was opened and wound up with scissors to obtain colon tissue. The obtained colon tissue was fixed in 10% neutral buffered formalin (Sigma-Aldrich, HT501128-4L, St. Louis, Mo., USA) at room temperature for 48 hours and then treated in a tissue processor (Excelsior ES, Thermo scientific, Waltham, Mass., USA) for 12 hours. The processed tissue was sectioned and paraffinized using a microtome (Microm, HM 340E, Thermo Scientific, Waltham, Mass., USA) and an embedding system (HistoStar, Thermo Scientific, Waltham, Mass., USA). Next, the processed tissue was stained with hematoxylin and eosin, and visualized under an optical microscope (Motic, BA310, Redding, Calif., USA) to confirm the histopathological state, and the histopathological state was scored to histological score according to the criteria in the following [Table 2].

[3] = system: chronic inflammatory bowel disease model induced with 2.5% DSS; assay: Chronic inflammatory bowel disease model, repeated 2.5% DSS, comparison with clinical prescription drugs; format: in vivo, mouse
Procedure: as §2

Q: What does the source list for `C[C@H](CCC(=O)NCCS(=O)(=O)O)[C@H]1CC[C@H]2[C@@H]3CC[C@@H]4C[C@H](O)CC[C@]4(C)[C@H]3C[C@H](O)[C@]12C` [TDCA, sodium taurodeoxycholic acid]?
A: numbers of CD11b+, Ly6g+, and Ly6c+ LPMCs in the colon tissue ([1]; 2% DSS 7 days, 5 mg/kg TDCA oral gavage, vs DSS+DPBS group, FIG. 3A): decreased; numbers of CD11b+, Ly6g+, Ly6c+, CD3+, CD4+, CD8+, CD19+, and MHCII+CD11c+ LPMCs in the colon tissue ([1]; DSS+TDCA group: 5 mg/kg TDCA from Day 1 of DSS): decreased; numbers of CD11b+, Ly6g+, Ly6c+, CD3+, CD4+, CD8+, CD19+, and MHCII+CD11c+ LPMCs in the colon tissue ([1]; DSS+preTDCA group: 5 mg/kg TDCA from 2 days before DSS): decreased; body weight change, compared with clinical prescription drugs ([2]; TDCA 2.5 mg/kg one time a day vs tofacitinib 10 mg/kg and 5-ASA 100 mg/kg, FIG. 9A): effect equivalent to those by tofacitinib 10 mg/kg and 5-ASA 100 mg/kg; DAI change, compared with clinical prescription drugs ([2]; TDCA 2.5 mg/kg one time a day vs tofacitinib 10 mg/kg and 5-ASA 100 mg/kg, FIG. 9B): effect equivalent to those by tofacitinib 10 mg/kg and 5-ASA 100 mg/kg; colon length, compared with clinical prescription drugs ([2]; TDCA 2.5 mg/kg vs tofacitinib 10 mg/kg and 5-ASA 100 mg/kg, FIG. 9C): effect equivalent to those by tofacitinib 10 mg/kg and 5-ASA 100 mg/kg; histological lesion index, compared with clinical prescription drugs ([2]; TDCA 2.5 mg/kg vs tofacitinib 10 mg/kg and 5-ASA 100 mg/kg, FIG. 9D): effect equivalent to those by tofacitinib 10 mg/kg and 5-ASA 100 mg/kg; body weight change, compared with clinical prescription drugs ([3]; TDCA 2.5 mg/kg QD, BID and TID vs tofacitinib 10 mg/kg and 5-ASA 200 mg/kg, FIG. 11A): effect equivalent to or higher than those by tofacitinib 10 mg/kg and 5-ASA 200 mg/kg; mortality, compared with clinical prescription drugs ([3]; TDCA 2.5 mg/kg, FIG. 11B): effect equivalent to or higher than those by clinical prescription drugs
